Test results taken from patent US8808737B2 (Endo Pharmaceuticals Inc., priority 2007, dated 2014).

Experiments:
[1] = Example 5: plasma pharmacokinetics of oxymorphone and metabolites after EN3202 in renal impairment vs healthy controls; details: for Mean bioavailability ratio (90% confidence interval) for AUC relative to controls / Mean bioavailability ratio (90% confidence interval) for Cmax relative to controls: ln-transformed; for AUC in plasma (mean, untransformed) / AUCT in plasma (mean, untransformed) / Cmax in plasma (mean, untransformed) / Ke, terminal elimination rate constant in plasma (mean) / Tmax in plasma (median) / t½, terminal elimination half-life in plasma (mean): single 20 mg dose of EN3202
Method: (§1) Attempts were made to match controls with the renal impaired patients with respect to age, gender, and weight. […] Naltrexone (50 mg) was administered on the evening prior to administration of the EN3202 dose.
In order to protect the subjects from potential opioid-related adverse events, a single 50-mg dose of the opioid antagonist ReVia® (naltrexone HCl) was administered at 20:00 the evening prior to administration of test medication. […] Subjects continued fasting until four (4) hours after dose administration. The subjects remained in an upright posture (sitting or standing) for 1 hour after dose administration. All doses were administered with 240 mL of water (room temperature), and the subjects were instructed to drink all the water.
(§2) Plasma and urine pharmacokinetic variables were calculated from the concentration data using standard, non-compartmental methods as outlined in the following table.
All pharmacokinetic results are summarized using appropriate descriptive statistics. Continuous variables were compared between renally impaired and control groups using appropriate parametric statistics. 90% confidence intervals were calculated for the differences or ratios between the renally impaired and control groups. In addition, the association between oral clearance (and other pharmacokinetic variables) and the severity of renal insufficiency (based on creatinine clearance) was explored.

[2] = Example 5: correlation of oxymorphone and metabolite plasma AUC / oral clearance with creatinine clearance; format: in vivo, human; details: linear regression; for AUC/wt vs. CLCR: R-square / AUC/wt vs. CLCR: Slope: AUC normalized for body weight vs creatinine clearance; for AUC vs. CLCR: R-square / AUC vs. CLCR: Slope: plasma AUC vs creatinine clearance
From the text: Creatinine clearance (ClCR) was estimated at screening using the following Cockroft and Gault^8 equation: […]
All pharmacokinetic results are summarized using appropriate descriptive statistics.
The potential association between plasma AUC and creatinine clearance was explored using linear regression techniques and the results are summarized in Table 36 and FIG. 16.

[3] = Pain levels (VAS, categorical scale) vs plasma oxymorphone and 6-hydroxyoxymorphone after a single dose; format: in vivo, human; details: single dose of oxymorphone, FIGS. 1-4
Method: For these tests, pain was measured using a Visual Analog Scale (VAS) or a Categorical Scale. The VAS scales consisted of a horizontal line, 100 mm in length. The left-hand end of the scale (0 mm) was marked with the descriptor “No Pain” and the right-hand end of the scale (100 mm) was marked with the descriptor “Extreme Pain”. Patients indicated their level of pain by making a vertical mark on the line. The VAS score was equal to the distance (in mm) from the left-hand end of the scale to the patient's mark. For the categorical scale, patients completed the following statement, “My pain at this time is” using the scale None=0, Mild=1, Moderate=2, or Severe=3.

[4] = Example 5: urinary excretion of oxymorphone and metabolites after EN3202 in renal impairment; details: for Mean percentage of the administered dose excreted in the urine / Mean urinary elimination half-life: EN3202 20 mg; for Mean percentage of the administered dose excreted in the urine: 0-120 hours; for Mean (SD) Ratio of Metabolite/Parent Excreted in Urine: parent = oxymorphone; for Mean (SD) Percent of Dose Recovered in Urine (0-120 hours): single oral 20-mg dose of EN3202
Method: as §1
Each subject was to be instructed to void at the end of each interval (so that each collection interval began with an empty bladder). The void prior to administration of the test medication (time 0) served as the pre-dose blank and was not be included in the collection container.
as §2

[5] = EN3202 20 mg, mild renal impairment
[6] = EN3202 20 mg, moderate renal impairment
[7] = EN3202 20 mg, severe renal impairment
[8] = subjects with mild renal impairment
[9] = subjects with moderate renal impairment
[10] = subjects with severe renal impairment
[11] = Healthy Controls, listed as oxymorphone-3-glucuronide
[12] = Severe Impairment, listed as oxymorphone-3-glucuronide

CN1CC[C@]23c4c5ccc(O)c4O[C@H]2C(O)CC[C@@]3(O)[C@H]1C5 (some centres unmarked) [6-OH-oxymorphone, 6-hydroxy oxymorphone]
Mean bioavailability ratio (90% confidence interval) for AUC relative to controls [1, 5]: 0.9953 (0.6153-1.6100)
Mean bioavailability ratio (90% confidence interval) for Cmax relative to controls [1, 5]: 1.4818
Mean bioavailability ratio (90% confidence interval) for AUC relative to controls [1, 6]: 0.9445 (0.5839-1.5279)
Mean bioavailability ratio (90% confidence interval) for AUC relative to controls [1, 7]: 1.3862 (0.8569-2.2423)
AUC in plasma (mean, untransformed) ([1]; Healthy Controls): 19.76 ng·h/mL
AUCT in plasma (mean, untransformed) ([1]; Healthy Controls): 14.95 ng·h/mL
Cmax in plasma (mean, untransformed) ([1]; Healthy Controls): 0.70 ng/mL
Ke, terminal elimination rate constant in plasma (mean) ([1]; Healthy Controls): 0.0449
Tmax in plasma (median) ([1]; Healthy Controls): 1.5 h
t½, terminal elimination half-life in plasma (mean) ([1]; Healthy Controls): 22.20 h
AUC in plasma (mean, untransformed) ([1]; Mild Impairment): 18.57 ng·h/mL
AUCT in plasma (mean, untransformed) ([1]; Mild Impairment): 14.26 ng·h/mL
Cmax in plasma (mean, untransformed) ([1]; Mild Impairment): 0.99 ng/mL
Ke, terminal elimination rate constant in plasma (mean) ([1]; Mild Impairment): 0.0451
Tmax in plasma (median) ([1]; Mild Impairment): 1.5 h
t½, terminal elimination half-life in plasma (mean) ([1]; Mild Impairment): 18.04 h
AUC in plasma (mean, untransformed) ([1]; Moderate Impairment): 17.64 ng·h/mL
AUCT in plasma (mean, untransformed) ([1]; Moderate Impairment): 11.70 ng·h/mL
Cmax in plasma (mean, untransformed) ([1]; Moderate Impairment): 0.76 ng/mL
Ke, terminal elimination rate constant in plasma (mean) ([1]; Moderate Impairment): 0.0312
Tmax in plasma (median) ([1]; Moderate Impairment): 2.5 h
t½, terminal elimination half-life in plasma (mean) ([1]; Moderate Impairment): 27.82 h
AUC in plasma (mean, untransformed) ([1]; Severe Impairment): 32.04 ng·h/mL
AUCT in plasma (mean, untransformed) ([1]; Severe Impairment): 26.48 ng·h/mL
Cmax in plasma (mean, untransformed) ([1]; Severe Impairment): 0.99 ng/mL
Ke, terminal elimination rate constant in plasma (mean) ([1]; Severe Impairment): 0.0349
Tmax in plasma (median) ([1]; Severe Impairment): 2.0 h
t½, terminal elimination half-life in plasma (mean) ([1]; Severe Impairment): 26.53 h
AUC/wt vs. CLCR: R-square [2]: 0.1222
AUC/wt vs. CLCR: Slope [2]: −0.0011
AUC vs. CLCR: R-square [2]: 0.0977
AUC vs. CLCR: Slope [2]: −0.1387
Relation between pain relief and blood plasma level [3]: there is a correlation
Mean percentage of the administered dose excreted in the urine ([4]; severe renal impairment): 0.16%
Mean urinary elimination half-life ([4]; healthy controls): 22.8 h
Mean urinary elimination half-life ([4]; mild renal impairment): 19.6 h
Mean urinary elimination half-life ([4]; moderate renal impairment): 22.4 h
Mean urinary elimination half-life ([4]; severe renal impairment): 34.4 h
Mean (SD) Ratio of Metabolite/Parent Excreted in Urine ([4]; healthy controls): 0.85 (0.27)
Mean (SD) Percent of Dose Recovered in Urine (0-120 hours) ([4]; healthy controls): 0.62 (0.28) %
Mean (SD) Ratio of Metabolite/Parent Excreted in Urine [4, 8]: 0.73 (0.45)
Mean (SD) Percent of Dose Recovered in Urine (0-120 hours) [4, 8]: 0.49 (0.15) %
Mean (SD) Ratio of Metabolite/Parent Excreted in Urine [4, 9]: 0.41 (0.22)
Mean (SD) Percent of Dose Recovered in Urine (0-120 hours) [4, 9]: 0.26 (0.14) %
Mean (SD) Ratio of Metabolite/Parent Excreted in Urine [4, 10]: 0.47 (0.42)
Mean (SD) Percent of Dose Recovered in Urine (0-120 hours) [4, 10]: 0.16 (0.11) %

CN1CC[C@]23c4c5ccc(O[C@@H]6O[C@H](C(=O)O)[C@@H](O)[C@H](O)[C@H]6O)c4O[C@H]2C(=O)CC[C@@]3(O)[C@H]1C5 [Oxymorphone-3-glucuronide, oxymorphone-3-glucuronide]
Mean plasma metabolite:oxymorphone ratio of AUC values (molar units) ([1]; EN3202 20 mg, healthy controls): 94.1
Mean plasma metabolite:oxymorphone ratio of AUC values (molar units) [1, 5]: 132.3
Mean bioavailability ratio (90% confidence interval) for AUC relative to controls [1, 5]: 1.7960 (1.3071-2.4677)
Mean bioavailability ratio (90% confidence interval) for Cmax relative to controls [1, 5]: 1.5769 (1.2146-2.0473)
Mean plasma metabolite:oxymorphone ratio of AUC values (molar units) [1, 6]: 191.4
Mean bioavailability ratio (90% confidence interval) for AUC relative to controls [1, 6]: 3.1196 (2.2704-4.2863)
Mean bioavailability ratio (90% confidence interval) for Cmax relative to controls [1, 6]: 1.9830 (1.5274-2.5745)
Mean plasma metabolite:oxymorphone ratio of AUC values (molar units) [1, 7]: 505.6
Mean bioavailability ratio (90% confidence interval) for AUC relative to controls [1, 7]: 9.0701 (6.6013-12.462)
Mean bioavailability ratio (90% confidence interval) for Cmax relative to controls [1, 7]: 3.1422 (2.4202-4.0795)
Mean increase in plasma AUC values relative to healthy controls ([1]; EN3202 20 mg, subjects with creatinine clearance values, 30 mL/min): ~9.7 fold
AUC in plasma (mean, untransformed) ([1]; Healthy Controls): 2439.7 ng·h/mL
AUCT in plasma (mean, untransformed) ([1]; Healthy Controls): 2309.5 ng·h/mL
Cmax in plasma (mean, untransformed) ([1]; Healthy Controls): 170.1 ng/mL
Tmax in plasma (median) ([1]; Healthy Controls): 3.0 h
t½, terminal elimination half-life in plasma (mean) ([1]; Healthy Controls): 9.53 h
AUC in plasma (mean, untransformed) [1, 11]: 2440 ng·h/mL
Cmax in plasma (mean, untransformed) [1, 11]: 170 ng/mL
t½, terminal elimination half-life in plasma (mean) [1, 11]: 9.5 h
AUC in plasma (mean, untransformed) ([1]; Mild Impairment): 4468.6 ng·h/mL
AUCT in plasma (mean, untransformed) ([1]; Mild Impairment): 4330.7 ng·h/mL
Cmax in plasma (mean, untransformed) ([1]; Mild Impairment): 280.2 ng/mL
Tmax in plasma (median) ([1]; Mild Impairment): 3.5 h
t½, terminal elimination half-life in plasma (mean) ([1]; Mild Impairment): 10.23 h
AUC in plasma (mean, untransformed) ([1]; Moderate Impairment): 8129.7 ng·h/mL
AUCT in plasma (mean, untransformed) ([1]; Moderate Impairment): 7959.9 ng·h/mL
Cmax in plasma (mean, untransformed) ([1]; Moderate Impairment): 359.7 ng/mL
Tmax in plasma (median) ([1]; Moderate Impairment): 4.5 h
t½, terminal elimination half-life in plasma (mean) ([1]; Moderate Impairment): 11.10 h
AUC in plasma (mean, untransformed) ([1]; Severe Impairment): 23604.2 ng·h/mL
AUCT in plasma (mean, untransformed) ([1]; Severe Impairment): 22313.6 ng·h/mL
Cmax in plasma (mean, untransformed) ([1]; Severe Impairment): 547.7 ng/mL
Tmax in plasma (median) ([1]; Severe Impairment): 11.0 h
t½, terminal elimination half-life in plasma (mean) ([1]; Severe Impairment): 22.09 h
AUC in plasma (mean, untransformed) [1, 12]: 23604 ng·h/mL
Cmax in plasma (mean, untransformed) [1, 12]: 548 ng/mL
t½, terminal elimination half-life in plasma (mean) [1, 12]: 22.1 h
AUC/wt vs. CLCR: R-square [2]: 0.4911
AUC/wt vs. CLCR: Slope [2]: −1.4140
AUC vs. CLCR: R-square [2]: 0.4976
AUC vs. CLCR: Slope [2]: −221.43
Mean percentage of the administered dose excreted in the urine ([4]; healthy controls): 37.16%
Mean percentage of the administered dose excreted in the urine ([4]; severe renal impairment): 38.35%
Mean urinary elimination half-life ([4]; healthy controls): 12.7 h
Mean urinary elimination half-life ([4]; mild renal impairment): 9.8 h
Mean urinary elimination half-life ([4]; moderate renal impairment): 12.8 h
Mean urinary elimination half-life ([4]; severe renal impairment): 36.6 h
Mean (SD) Ratio of Metabolite/Parent Excreted in Urine ([4]; healthy controls): 51.78 (16.89)
Mean (SD) Percent of Dose Recovered in Urine (0-120 hours) ([4]; healthy controls): 37.16 (14.94) %
Mean (SD) Ratio of Metabolite/Parent Excreted in Urine [4, 8]: 72.17 (48.36)
Mean (SD) Percent of Dose Recovered in Urine (0-120 hours) [4, 8]: 44.36 (8.72) %
Mean (SD) Ratio of Metabolite/Parent Excreted in Urine [4, 9]: 70.62 (37.69)
Mean (SD) Percent of Dose Recovered in Urine (0-120 hours) [4, 9]: 38.87 (8.63) %
Mean (SD) Ratio of Metabolite/Parent Excreted in Urine [4, 10]: 112.44 (40.45)
Mean (SD) Percent of Dose Recovered in Urine (0-120 hours) [4, 10]: 38.35 (13.10) %
